Results from the NIST ThermoML archive (doi:10.1016/j.jct.2008.08.013).

Test: xn = mol fraction of the nth substance listed
Conditions: 101 kPa, Liquid, Vibrating tube method

Nc1ccccc1 [aniline] + ClCCl
mass density [kg/m3]
Conditions | 288.15 K | 293.15 K | 298.15 K | 303.15 K
x2 = 0.0218 | 1030.69 | 1025.78 | 1021.79 | 1017.43
x2 = 0.1003 | 1048.42 | 1043.36 | 1039.19 | 1034.68
x2 = 0.2004 | 1072.39 | 1067.17 | 1062.72 | 1057.97
x2 = 0.2507 | 1085.02 | 1079.67 | 1075.06 | 1070.21
x2 = 0.2992 | 1097.6 | 1092.14 | 1087.38 | 1082.37
x2 = 0.3502 | 1111.25 | 1105.64 | 1100.68 | 1095.52
x2 = 0.3985 | 1124.6 | 1118.83 | 1113.68 | 1108.38
x2 = 0.4998 | 1153.99 | 1147.9 | 1142.28 | 1136.65
x2 = 0.5529 | 1170.24 | 1164 | 1158.09 | 1152.21
x2 = 0.6023 | 1185.94 | 1179.46 | 1173.3 | 1167.19
x2 = 0.6504 | 1201.8 | 1195.11 | 1188.66 | 1182.34
x2 = 0.6992 | 1218.48 | 1211.56 | 1204.8 | 1198.22
x2 = 0.7506 | 1236.69 | 1229.48 | 1222.36 | 1215.59
x2 = 0.8003 | 1254.94 | 1247.49 | 1239.98 | 1232.77
x2 = 0.8997 | 1293.47 | 1285.36 | 1277.01 | 1269.11
x2 = 0.9298 | 1305.66 | 1297.3 | 1288.69 | 1280.69
x2 = 0.9505 | 1314.14 | 1305.64 | 1296.8 | 1288.52
x2 = 0.9799 | 1326.37 | 1317.62 | 1308.49 | 1299.98
